Reference: patent US12516039B2, “N-linked isoquinoline amides as LRRK2 inhibitors, pharmaceutical compositions, and uses thereof” (Merck Sharp & Dohme LLC, priority 2020, dated 2026)

Biological target: T1, GST-tagged truncated human mutant G2019S LRRK2 (Homo sapiens, UniProt Q5S007, G2019S)
T1 construct: GST-tagged truncated human mutant G2019S LRRK2; purchased Life Technologies Corporation (Carlsbad, CA)
Test: LRRK2 G2019S Km ATP LanthaScreen assay
Type: biochemical
Conditions: 134 μM ATP (Km ATP), LRRKtide substrate, mean of several tests
Method: Unless otherwise noted, all reactions are magnetically stirred. Unless otherwise noted, when diethyl ether is used in the experiments described below, it is Fisher ACS certified material and is stabilized with BHT. Unless otherwise noted, “concentrated” and/or “solvent removed under reduced pressure” means evaporating the solvent from a solution or mixture using a rotary evaporator or vacuum pump. Unless otherwise noted, flash chromatography is carried out on a Teledyne Isco (Lincoln, NE), Analogix (Burlington, WI), or Biotage (Stockholm, SWE) automated chromatography system using a commercially available cartridge as the column. Columns may be purchased from Teledyne Isco, Analogix, Biotage, Varian (Palo Alto, CA), or Supelco (Bellefonte, PA) and are usually filled with silica gel as the stationary phase. Reverse phase prep-HPLC conditions, where used, can be found at the end of each experimental section. Aqueous solutions were concentrated on a Genevac (Ipswich, ENG) or by freeze-drying/lyophilization. Unless otherwise noted, all LRRK2 pIC50 data presented in tables refers to the LRRK2 G2019S Km ATP LanthaScreen™ assay (Life Technologies Corp., Carlsbad, CA) that is described in the Biological Assay section.
Biological Assay: LRRK2 Km ATP LanthaScreen™ Assay
The LRRK2 kinase activity reported herein as IC50 values was determined with LanthaScreen™ technology from Life Technologies Corporation (Carlsbad, CA) using GST-tagged truncated human mutant G2019S LRRK2 in the presence of the fluorescein-labeled peptide substrate LRRKtide, also from Life Technologies. The data presented for the Km ATP LanthaScreen™ Assay represents mean IC50 values based on several test results and may have reasonable deviations depending on the specific conditions and reagents used. Assays were performed in the presence of 134 μM ATP (Km ATP). Upon completion, the assay was stopped and phosphorylated substrate detected with a terbium (Tb)-labeled anti-pERM antibody (cat. no. PV4898). The compound dose response was prepared by diluting a 10 mM stock of compound to a maximum concentration of 9.99 μM in 100% dimethylsulfoxide followed by custom fold serial dilution in dimethylsulfoxide nine times. Twenty nanoliters of each dilution was spotted via a Labcyte Echo onto a 384-well black-sided plate (Corning 3575) followed by 15 μl of a 1.25 nM enzyme solution in 1× assay buffer (50 mM Tris pH 8.5, 10 mM MgCl2, 0.01% Brij-35, 1 mM EGTA, 2 mM dithiothreitol, 0.05 mM sodium orthovanadate). Following a 15-minute incubation at room temperature, the kinase reaction was started with the addition of 5 μl of 400 nM fluorescein-labeled LRRKtide peptide substrate and 134 μM ATP solution in 1× assay buffer. The reaction was allowed to progress at ambient temperature for 90 minutes. The reaction was then stopped by the addition of 20 μl of TR-FRET Dilution Buffer (Life Technologies, Carlsbad, CA) containing 2 nM Tb-labeled anti-phospho LRRKtide antibody and 10 mM EDTA (Life Technologies, Carlsbad, CA). After an incubation of 1 hour at room temperature, the plate was read on an EnVision multimode plate reader (Perkin Elmer, Waltham, MA) with an excitation wavelength of 337 nm (Laser) and a reading emission at both 520 and 495 nm. Compound IC50s were interpolated from nonlinear regression best fits of the log of the final compound concentration, plotted as a function of the 520/495-nm emission ratio using Activity base. Abase uses a 4 parameter (4P) logistic fit based on the Levenberg-Marquardt algorithm.

T1 sequence (Q5S007 970-2527 G2019S limits assumed): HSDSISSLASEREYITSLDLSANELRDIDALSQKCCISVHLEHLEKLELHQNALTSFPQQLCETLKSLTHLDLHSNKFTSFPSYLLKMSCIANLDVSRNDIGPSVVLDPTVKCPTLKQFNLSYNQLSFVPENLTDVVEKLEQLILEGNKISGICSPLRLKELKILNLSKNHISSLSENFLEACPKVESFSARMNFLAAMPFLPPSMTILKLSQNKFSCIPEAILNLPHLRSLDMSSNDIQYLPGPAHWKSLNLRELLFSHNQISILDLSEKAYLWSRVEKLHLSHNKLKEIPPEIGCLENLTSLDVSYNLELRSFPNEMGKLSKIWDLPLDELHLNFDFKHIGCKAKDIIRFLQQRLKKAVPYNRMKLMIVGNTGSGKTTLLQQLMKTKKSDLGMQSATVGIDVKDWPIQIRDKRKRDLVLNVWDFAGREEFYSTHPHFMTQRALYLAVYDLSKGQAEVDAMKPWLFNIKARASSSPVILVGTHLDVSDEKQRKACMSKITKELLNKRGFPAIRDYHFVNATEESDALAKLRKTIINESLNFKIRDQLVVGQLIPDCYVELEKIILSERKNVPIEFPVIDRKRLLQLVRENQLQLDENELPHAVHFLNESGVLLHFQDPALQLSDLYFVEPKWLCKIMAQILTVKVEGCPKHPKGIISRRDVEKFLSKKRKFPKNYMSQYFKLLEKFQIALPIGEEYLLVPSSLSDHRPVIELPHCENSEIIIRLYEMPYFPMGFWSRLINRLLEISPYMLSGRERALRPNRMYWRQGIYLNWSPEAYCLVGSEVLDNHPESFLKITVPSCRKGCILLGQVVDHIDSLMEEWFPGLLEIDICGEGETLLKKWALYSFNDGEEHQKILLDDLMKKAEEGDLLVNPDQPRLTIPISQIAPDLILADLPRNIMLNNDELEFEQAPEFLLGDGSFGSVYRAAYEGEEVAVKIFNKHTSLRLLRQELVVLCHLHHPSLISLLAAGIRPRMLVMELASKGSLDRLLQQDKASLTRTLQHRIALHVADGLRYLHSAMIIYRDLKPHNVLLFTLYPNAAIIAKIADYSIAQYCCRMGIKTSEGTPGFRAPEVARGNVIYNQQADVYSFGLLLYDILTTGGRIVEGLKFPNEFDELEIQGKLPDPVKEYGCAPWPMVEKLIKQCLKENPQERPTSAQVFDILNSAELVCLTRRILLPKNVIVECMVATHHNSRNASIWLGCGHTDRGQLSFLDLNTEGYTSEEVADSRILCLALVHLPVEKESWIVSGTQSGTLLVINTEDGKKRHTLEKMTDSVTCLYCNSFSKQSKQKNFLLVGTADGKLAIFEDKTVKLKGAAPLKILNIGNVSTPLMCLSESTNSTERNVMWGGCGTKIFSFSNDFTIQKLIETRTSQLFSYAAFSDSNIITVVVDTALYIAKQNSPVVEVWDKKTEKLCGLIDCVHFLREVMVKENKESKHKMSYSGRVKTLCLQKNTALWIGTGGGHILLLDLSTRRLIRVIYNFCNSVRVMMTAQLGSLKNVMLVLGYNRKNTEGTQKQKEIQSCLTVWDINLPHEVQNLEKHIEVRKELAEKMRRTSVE

SMILES	LRRK2 pIC50
Cn1cc(C2CC2C(=O)Nc2cc3cc(N4CCC(F)(C#N)CC4)c(Cl)cc3cn2)cn1 (stereo not drawn) [Ex-4.11]	7.39

Same assay, conditions: 134 μM ATP (Km ATP), LRRKtide substrate, mean of several tests, read-out: LRRK2 pIC50 (converted)

SMILES	IC50 [nM]
CC1(c2ccccn2)CC1C(=O)Nc1cc2cc(N3CCN(C4(C)COCC4O)CC3)c(Cl)cc2cn1 (single isomer, unassigned) [Ex-11.2, (1R,2R)(3R,4R)— or (1R,2S)(3R,4R)— or (1S,2R)(3R,4R)— or (1S,2S)(3R,4R)— or (1R,2R)(3S,4S)— or (1R,2S)(3S,4S)— or (1S,2R)(3S,4S)— or (1S,2S)(3S,4S)-N-(7-chloro-6-(4-(4-hydroxy-3-methyltetrahydrofuran-3-yl)piperazin-1-yl)isoquinolin-3-yl)-2-methyl-2-(pyridin-2-yl)cyclopropane-1-carboxamide]	45.7
COC1COCC1N1CCN(c2cc3cc(NC(=O)C4CC45CCOCC5)ncc3cc2Cl)CC1 (single isomer, unassigned) [Ex-5.8]	191
O=C(Nc1cc2cc(N3CCN(C4COCC4O)CC3)c(Cl)cc2cn1)C1CC12CCOCC2 (single isomer, unassigned) [Ex-2.7, (R or S)-N-(7-chloro-6-(4-((3R,4R or 3S,4S)-4-hydroxytetrahydrofuran-3-yl)piperazin-1-yl)isoquinolin-3-yl)-6-oxaspiro[2.5]octane-1-carboxamide]	380
Cc1cc2cnc(NC(=O)C3C(C)C3c3cnn(C)c3)cc2cc1N1CCN(C2(C)CCOC2)CC1 (single isomer, unassigned) [Ex-9.13]	11.5
O=C(Nc1cc2cc(N3C(=O)C4CCC3C4)ccc2cn1)C1CC1 (single isomer, unassigned) [Ex-5.1]	9.55
CC1(N2CCN(c3cc4cc(NC(=O)C5CC56CCCOC6)ncc4cc3Cl)CC2)COCC1O (single isomer, unassigned) [Ex-1.14, (1R,3S, or 1R,3R, or 1S,3S, or 1S,3R)-N-(7-chloro-6-(4-((3R,4R or 3S,4S)-4-hydroxy-3-methyltetrahydrofuran-3-yl)piperazin-1-yl)isoquinolin-3-yl)-5-oxaspiro[2.5]octane-1-carboxamide]	0.603
CC1(C2CCOC2)CC1C(=O)Nc1cc2cc(N3CCN(C4(C)COCC4O)CC3)c(Cl)cc2cn1 (single isomer, unassigned) [Ex-10.81, (1R,2R or 1S,2S, or 1R,2S, or 1S,2R)-N-[7-chloro-6-[4-((3R,4R or 3S,4S)-4-hydroxy-3-methyl-tetrahydrofuran-3-yl)piperazin-1-yl]-3-isoquinolyl]-2-methyl-2-tetrahydrofuran-3-yl-cyclopropanecarboxamide]	0.0813
CC1(N2CCN(c3cc4cc(NC(=O)C5CC56CC6)ncc4cc3Cl)CC2)COCC1O (single isomer, unassigned) [Ex-2.13, (R or S)-N-(7-chloro-6-(4-((3R,4R or 3S,4S)-4-hydroxy-3-methyltetrahydrofuran-3-yl)piperazin-1-yl)isoquinolin-3-yl)spiro[2.2]pentane-1-carboxamide]	33.9
C[C@H]1CN(c2cc3cc(NC(=O)C4CC45CCOCC5)ncc3cc2Cl)CCN1C1(C)COCC1O (single isomer, unassigned) [Ex-2.21, (R or S)-N-(7-chloro-6-((S or R)-4-((3R,4R, or 3S,4S)-4-hydroxy-3-methyltetrahydrofuran-3-yl)-3-methylpiperazin-1-yl)isoquinolin-3-yl)-6-oxaspiro[2.5]octane-1-carboxamide]	0.589
COC1CC(C(=O)Nc2cc3cc(N4CCN(C5(C)COCC5O)CC4)c(Cl)cc3cn2)C1 (single isomer, unassigned) [Ex-7.1]	0.832
CCC1C(C(=O)Nc2cc3cc(N4CCN(C5(C)CCOC5)CC4)c(Cl)cc3cn2)C1c1cnn(C)c1 (single isomer, unassigned) [Ex-9.11]	1.15
COc1cc2cnc(NC(=O)C3CC34CCOCC4)cc2cc1N1CCN(C2(C)COCC2O)CC1 (single isomer, unassigned) [Ex-13]	3.39
Cc1cc2cnc(NC(=O)C3C4CCOCC43)cc2cc1N1CCN(C2(C)CCOC2)CC1 (single isomer, unassigned) [Ex-10.45, (1S,6R,7R, 1R,6S,7R, or 1R, 6S,7S, or 1S,6S,7S)-N-(7-methyl-6-(4-((R or S)-3-methyltetrahydrofuran-3-yl)piperazin-1-yl)isoquinolin-3-yl)-3-oxabicyclo[4.1.0]heptane-7-carboxamide]	0.145
CCC1C(C(=O)Nc2cc3cc(N4CCN(C5(C)COCC5O)CC4)c(Cl)cc3cn2)C1c1ccn(C)n1 (single isomer, unassigned) [Ex-10.65, (1R,2R,3R, or 1R,2S,3R, or 1S,2R,3S, or 1S,2S,3S)-N-[7-chloro-6-[4-( (3R,4R or 3S,4S)-4-hydroxy-3-methyl-tetrahydrofuran-3-yl)piperazin-1-yl]-3-isoquinolyl]-2-ethyl-3-(1-methylpyrazol-3-yl)cyclopropanecarboxamide]	0.0813
Cc1cc2cnc(NC(=O)C3C4CCOCC43)cc2cc1N1CCN(C2(C)CCOC2)CC1 (single isomer, unassigned) [Ex-10.47, (1S,6R,7R, 1R,6S,7R, or 1R, 6S,7S, or 1S,6S,7S)-N-(7-methyl-6-(4-((R or S)-3-methyltetrahydrofuran-3-yl)piperazin-1-yl)isoquinolin-3-yl)-3-oxabicyclo[4.1.0]heptane-7-carboxamide]	10.2
Cc1cc2cnc(NC(=O)C3CC3c3cnn(C)c3C(F)(F)F)cc2cc1N1CCN(C2(C)CCOC2)CC1 (single isomer, unassigned) [Ex-10.33, (1R,2R or 1S,2S)-N-[7-methyl-6-[4-((R or S)-3-methyltetrahydrofuran-3-yl)piperazin-1-yl]-3-isoquinolyl]-2-[1-methyl-5-(trifluoromethyl)pyrazol-4-yl]cyclopropanecarboxamide]	4.79
CC1(C)CC(C(=O)Nc2cc3cc(N4CCN(C5(C)COCC5O)CC4)c(Cl)cc3cn2)CO1 (single isomer, unassigned) [Ex-1.22, (R or S)-N-(7-chloro-6-(4-((3R,4R or 3S,4S)-4-hydroxy-3-methyltetrahydrofuran-3-yl)piperazin-1-yl)isoquinolin-3-yl)-5,5-dimethyltetrahydrofuran-3-carboxamide]	1.17
CC1(C2CCOC2)CC1C(=O)Nc1cc2cc(N3CCN(C4(C)COCC4O)CC3)c(Cl)cc2cn1 (single isomer, unassigned) [Ex-10.83, (1R,2R or 1S,2S, or 1R,2S, or 1S,2R)-N-[7-chloro-6-[4-((3R,4R or 3S,4S)-4-hydroxy-3-methyl-tetrahydrofuran-3-yl)piperazin-1-yl]-3-isoquinolyl]-2-methyl-2-tetrahydrofuran-3-yl-cyclopropanecarboxamide]	0.525
CC1C(C(=O)Nc2cc3cc(N4CCN(C5(C)COCC5O)CC4)c(Cl)cc3cn2)C1c1ccccn1 (single isomer, unassigned) [Ex-11.3, (1R,2R,3R, or 1R,2S,3R, or 1S,2R,3S, or 1S,2S,3S)-N-(7-chloro-6-(4-((3R,4R or 3S,4S)-4-hydroxy-3-methyltetrahydrofuran-3-yl)piperazin-1-yl)isoquinolin-3-yl)-2-methyl-3-(pyridin-2-yl)cyclopropane-1-carboxamide]	0.0813
CC1(N2CCN(c3cc4cc(NC(=O)C5CC5c5ccccn5)ncc4cc3F)CC2)COCC1O (single isomer, unassigned) [Ex-2.23, (1R,2R or 1S,2S)-N-[7-fluoro-6-[4-[(3R,4R or 3S,4S)-4-hydroxy-3-methyl-tetrahydrofuran-3-yl]piperazin-1-yl]-3-isoquinolyl]-2-(2-pyridyl)cyclopropanecarboxamide]	0.316
